Measurements published in paper PMC5161641 (Nature, 2016).
Residue numbers refer to the chain shown, from its start.

What was measured:
[1] = molecular target: T1, human P2X3 receptor (hP2X3-MFC) (Homo sapiens, UniProt P56373); assay: X-ray structure of soaked crystal; assay type: binding
T1 sequence (P56373 6-364): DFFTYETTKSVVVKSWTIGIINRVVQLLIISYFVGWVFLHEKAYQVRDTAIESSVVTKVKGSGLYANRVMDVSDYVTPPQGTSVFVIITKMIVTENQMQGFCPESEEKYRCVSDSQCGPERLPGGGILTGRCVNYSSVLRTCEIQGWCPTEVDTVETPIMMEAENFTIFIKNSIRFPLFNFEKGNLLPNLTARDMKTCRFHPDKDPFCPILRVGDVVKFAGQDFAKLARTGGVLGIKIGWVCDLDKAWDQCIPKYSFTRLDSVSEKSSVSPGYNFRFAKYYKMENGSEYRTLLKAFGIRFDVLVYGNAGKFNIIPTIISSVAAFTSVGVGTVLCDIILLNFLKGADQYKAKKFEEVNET

[2] = molecular target: T1, human P2X3 receptor (hP2X3-MFC); assay: SPA 3H-ATP saturation binding
[3] = molecular target: T2, human P2X3 receptor (hP2X3-MFCslow) (Homo sapiens, UniProt P56373, T13P/S15V/V16I); assay: SPA 3H-ATP saturation binding
T2 sequence (P56373 6-364 T13P/S15V/V16I): T1 sequence (P56373 6-364) with T8P, S10V, V11I

Structure (SMILES)	Ki [1]	Kd [2]	Kd [3]
CSc1nc(N)c2ncn([C@@H]3O[C@H](COP(=O)(O)OP(=O)(O)OP(=O)(O)O)[C@@H](O)[C@H]3O)c2n1 [2-methylthio-ATP, 2-(methylthio)adenosine 5′-triphosphate]	1.9 ± 0.1 nM	–	–
Nc1ncnc2c1ncn2[C@@H]1O[C@H](COP(=O)(O)OP(=O)(O)OP(=O)(O)O)[C@@H](O)[C@H]1O [ATP]	–	2.8 ± 0.1 nM	3.3 ± 0.3 nM
